Assay results taken from ChEMBL document CHEMBL1201862, “PubChem BioAssay data set” (2004).
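Growth conditions: 96-well plates. Treatment: test compound, 48 hours, 5 concentrations. Analysis: linear interpolation between bracketing concentrations; unreached endpoints set to highest concentration. The concentration for 50% growth inhibition is given as GI50.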 Activity calls are given as the source filed them. Rule as the data show it: active = GI50 up to about 1.1 µM and inactive = higher.

Tests used:
Experiment in all cases: NCI tumour cell line growth inhibition, 48 h
[1] = test system: SK-MEL-2
[2] = test system: 786-0
[3] = test system: NCI-H460
[4] = test system: K562
[5] = test system: SR
[6] = test system: OVCAR-5
[7] = test system: NCI-H23
[8] = test system: SF-295
[9] = test system: UACC-257
[10] = test system: MDA-MB-435
[11] = test system: MDA-N
[12] = test system: MCF7
[13] = test system: ACHN
[14] = test system: T47D
[15] = test system: LOX IMVI
[16] = test system: HT-29
[17] = test system: A498
[18] = test system: SNB-75
[19] = test system: TK-10
[20] = test system: BT-549

| Compound | GI50 [1] | GI50 [2] | GI50 [3] | GI50 [4] | GI50 [5] | GI50 [6] | GI50 [7] | GI50 [8] | GI50 [9] | GI50 [10] | GI50 [11] | GI50 [12] | GI50 [13] | GI50 [14] | GI50 [15] | GI50 [16] | GI50 [17] | GI50 [18] | GI50 [19] | GI50 [20] |
| --- | --- | --- | --- | --- | --- | --- | --- | --- | --- | --- | --- | --- | --- | --- | --- | --- | --- | --- | --- | --- |
| c1ccc(-c2nnn3c2NC2=C(CCCC2)C3c2ccccc2)cc1 (stereo unspecified) | 16.2 µM (inactive) | 16.7 µM (inactive) | 23.4 µM (inactive) | 10.3 µM (inactive) | 13.5 µM (inactive) | 16 µM (inactive) | 25.8 µM (inactive) | 20.7 µM (inactive) | 21.2 µM (inactive) | 5.71 µM (inactive) | 12.9 µM (inactive) | 17.1 µM (inactive) | 1.47 µM (inactive) | 22.5 µM (inactive) | 13.7 µM (inactive) | 15.1 µM (inactive) | – | – | – | – |
| C=C(Cl)C(C)(Cl)CCC(Cl)C(C)C (stereo unspecified) | > 100 µM (inactive) | > 100 µM (inactive) | > 100 µM (inactive) | 51.5 µM (inactive) | 24.8 µM (inactive) | > 100 µM (inactive) | > 100 µM (inactive) | > 100 µM (inactive) | > 100 µM (inactive) | > 100 µM (inactive) | 43.2 µM (inactive) | > 100 µM (inactive) | > 100 µM (inactive) | – | 15.3 µM (inactive) | 66.8 µM (inactive) | > 100 µM (inactive) | 24.6 µM (inactive) | > 100 µM (inactive) | > 100 µM (inactive) |
| c1ccc(NN=C(c2ccccn2)c2ccccn2)nc1 | 0.49 µM (active) | 0.142 µM (active) | 0.153 µM (active) | 0.463 µM (active) | – | 0.794 µM (active) | 0.0408 µM (active) | 0.423 µM (active) | 0.187 µM (active) | 0.817 µM (active) | 0.533 µM (active) | < 0.0245 µM (active) | 0.159 µM (active) | – | 0.269 µM (active) | < 0.01 µM (active) | 0.447 µM (active) | 2.56 µM (inactive) | 0.357 µM (active) | 6.18 µM (inactive) |
| COC(=O)CCc1ccc(CCC(=O)OC)cc1 | > 100 µM (inactive) | > 100 µM (inactive) | > 100 µM (inactive) | > 100 µM (inactive) | > 100 µM (inactive) | > 100 µM (inactive) | > 100 µM (inactive) | > 100 µM (inactive) | > 100 µM (inactive) | > 100 µM (inactive) | > 100 µM (inactive) | > 100 µM (inactive) | > 100 µM (inactive) | > 100 µM (inactive) | > 100 µM (inactive) | > 100 µM (inactive) | > 100 µM (inactive) | > 100 µM (inactive) | > 100 µM (inactive) | – |
| O=c1c2cccc3cccc(c4oc5c6cccc7cccc(c(=O)c5c14)c76)c32 | 15.7 µM (inactive) | 11.2 µM (inactive) | 12.5 µM (inactive) | > 10 µM (inactive) | 7.66 µM (inactive) | 27.2 µM (inactive) | 13.2 µM (inactive) | 17.9 µM (inactive) | 17.1 µM (inactive) | – | – | – | 11.6 µM (inactive) | – | 12.2 µM (inactive) | 13.8 µM (inactive) | > 100 µM (inactive) | 14 µM (inactive) | 11.6 µM (inactive) | – |
| CC1=NN(c2cccc(Cl)c2)C(=N/c2nc3ccccc3s2)/C1=C\c1ccc(Cl)cc1 | 17.9 µM (inactive) | 18.8 µM (inactive) | 17.2 µM (inactive) | 29 µM (inactive) | 24.7 µM (inactive) | 22.6 µM (inactive) | 18.7 µM (inactive) | 23.4 µM (inactive) | 20.7 µM (inactive) | – | 23.4 µM (inactive) | 22.2 µM (inactive) | 24.3 µM (inactive) | 33.6 µM (inactive) | 18.2 µM (inactive) | 17.9 µM (inactive) | 22.2 µM (inactive) | 26.4 µM (inactive) | 26.4 µM (inactive) | – |
| CCCCCCCCC(O)C#CC(N)=O (stereo unspecified) | 13.3 µM (inactive) | 12.7 µM (inactive) | 9.1 µM (inactive) | 13.3 µM (inactive) | 12.9 µM (inactive) | 26.7 µM (inactive) | 17.6 µM (inactive) | 39 µM (inactive) | 13 µM (inactive) | – | – | – | 12.4 µM (inactive) | – | 11.7 µM (inactive) | 12.1 µM (inactive) | 16.4 µM (inactive) | 3.37 µM (inactive) | 16 µM (inactive) | – |
| CC(C)=CC1C[C@H](C2CC=C3C2(C)CCC2[C@@]3(C)C(=O)CC3[C@]2(C)C=CC(=O)[C@]3(C)CO)CO1 (stereo partly specified) | 5.45 µM (inactive) | 5.96 µM (inactive) | 11.6 µM (inactive) | 4.34 µM (inactive) | 3.02 µM (inactive) | 21 µM (inactive) | 5.42 µM (inactive) | 13 µM (inactive) | 13.9 µM (inactive) | – | – | – | 13.2 µM (inactive) | – | 3.76 µM (inactive) | 4.15 µM (inactive) | 8.81 µM (inactive) | 8.04 µM (inactive) | 25.8 µM (inactive) | – |
| O=C1NC2(CCCCCC2)C2CCCCCCC12O (stereo unspecified) | > 100 µM (inactive) | > 100 µM (inactive) | > 100 µM (inactive) | > 100 µM (inactive) | > 100 µM (inactive) | > 100 µM (inactive) | > 100 µM (inactive) | > 100 µM (inactive) | > 100 µM (inactive) | – | – | – | > 100 µM (inactive) | – | > 100 µM (inactive) | > 100 µM (inactive) | > 100 µM (inactive) | > 100 µM (inactive) | > 100 µM (inactive) | – |
| COc1cc(C2c3[nH]c4ccc(F)cc4c3C[C@H]3COC(=O)N23)cc(OC)c1O (stereo partly specified) | 26.2 µM (inactive) | 11.6 µM (inactive) | 4.36 µM (inactive) | 14.8 µM (inactive) | 0.47 µM (active) | 18.8 µM (inactive) | 4.11 µM (inactive) | 12.1 µM (inactive) | 11.1 µM (inactive) | – | – | 3.33 µM (inactive) | 5.79 µM (inactive) | 32.5 µM (inactive) | 5.43 µM (inactive) | 7.55 µM (inactive) | 6.71 µM (inactive) | 2.29 µM (inactive) | > 10 µM (inactive) | 43.2 µM (inactive) |
| CN(C)CCNC1=C(Cl)C(=O)c2c(O)ccc(O)c2C1=O | 2.1 µM (inactive) | 2.08 µM (inactive) | 1.95 µM (inactive) | 2.76 µM (inactive) | – | 1.74 µM (inactive) | 2.18 µM (inactive) | 2.12 µM (inactive) | 1.72 µM (inactive) | 1.71 µM (inactive) | 2.59 µM (inactive) | – | 3.5 µM (inactive) | 2.08 µM (inactive) | – | 1.85 µM (inactive) | 3.39 µM (inactive) | 2.99 µM (inactive) | 2.33 µM (inactive) | 1.72 µM (inactive) |
| COc1cc2c(cc1OC)CC(=O)Nc1cc(OC)c(OC)cc1CC2 | 79.8 µM (inactive) | 49.2 µM (inactive) | 39.3 µM (inactive) | 24 µM (inactive) | 5.74 µM (inactive) | > 83.8 µM (inactive) | > 82.6 µM (inactive) | 30.3 µM (inactive) | > 53.7 µM (inactive) | – | – | – | > 100 µM (inactive) | – | > 82.4 µM (inactive) | 37 µM (inactive) | 44.5 µM (inactive) | > 59.2 µM (inactive) | > 77.4 µM (inactive) | – |
| OC1NC2CC3NC(O)C(O)NC3CC2NC1O (stereo unspecified) | > 100 µM (inactive) | > 100 µM (inactive) | > 100 µM (inactive) | > 100 µM (inactive) | > 100 µM (inactive) | > 100 µM (inactive) | > 100 µM (inactive) | > 100 µM (inactive) | > 100 µM (inactive) | > 100 µM (inactive) | > 100 µM (inactive) | > 100 µM (inactive) | > 100 µM (inactive) | > 100 µM (inactive) | > 100 µM (inactive) | > 100 µM (inactive) | – | > 100 µM (inactive) | > 100 µM (inactive) | – |
| Oc1cc(-c2cccc3ccccc23)nc2ncccc12 | 0.0178 µM (active) | 0.0321 µM (active) | 0.0443 µM (active) | 0.00525 µM (active) | 0.00565 µM (active) | 0.0472 µM (active) | 0.035 µM (active) | 0.0388 µM (active) | 0.00152 µM (active) | 0.000865 µM (active) | 0.00119 µM (active) | 0.00693 µM (active) | 0.0325 µM (active) | – | 0.033 µM (active) | 0.0173 µM (active) | 0.0206 µM (active) | 0.00684 µM (active) | – | 0.938 µM (active) |
| COc1ccc(CN[C@H]2CCc3cc(OC)c(OC)c(OC)c3-c3ccc(SC)c(=O)cc32)c(OC)c1OC | 0.0282 µM (active) | 0.037 µM (active) | 0.026 µM (active) | 0.0346 µM (active) | 0.0167 µM (active) | 0.0421 µM (active) | 0.0219 µM (active) | 0.0296 µM (active) | 0.0811 µM (active) | – | – | – | 0.063 µM (active) | – | 0.0352 µM (active) | 0.0205 µM (active) | 0.0296 µM (active) | 0.0184 µM (active) | 0.0849 µM (active) | – |
| Cc1c(Cl)cccc1NC(=O)C(=O)C1C(=O)CC(C)(C)CC1=O | > 100 µM (inactive) | > 100 µM (inactive) | > 100 µM (inactive) | > 100 µM (inactive) | > 100 µM (inactive) | > 100 µM (inactive) | > 100 µM (inactive) | > 100 µM (inactive) | > 100 µM (inactive) | – | – | – | > 100 µM (inactive) | – | > 100 µM (inactive) | > 100 µM (inactive) | > 100 µM (inactive) | > 100 µM (inactive) | > 100 µM (inactive) | – |
